Reference: patent US10519099B2, “Cystobactamides” (priority 2014, dated 2019)
≈ marks a conversion by molar mass, not a printed value. Where two headings read alike, the source gives them in different places.

Columns and labels:
[1] = system: Acinetobacter baumannii DSM-30008; assay: MIC microdilution, A. baumannii DSM-30008; assay type: cell-based; details: Acinetobacter baumannii, DSM30008
Protocol: (§1) Indicator strains used in susceptibility assays were either part of our strain collection or purchased from the German Collection of Microorgansims and Cell Cultures (DSMZ) or from the American Type Culture Collection (ATCC). E. coli strain WT and corresponding E. coli mutants were kindly provided by Prof. Dr. P. Heisig, Pharmaceutical Biology and Microbiology, University of Hamburg. E. coli strains JW0401-1 (WT) and Δtsx were obtained from the CGSC collection.
(§2) MIC values were determined in standardized microdilution assays. Overnight cultures were diluted in the appropriate growth medium to achieve an inoculum of 10^4-10^6 cfu/mL. Yeasts were grown in Myc medium (1% phytone peptone, 1% glucose, 50 mM HEPES, pH 7.0), S. pneumonia and Enterococcus spp. in tryptic soy broth (TSB: 1.7% peptone casein, 0.3% peptone soymeal, 0.25% glucose, 0.5% NaCl, 0.25% K2HPO4; pH 7.3); M. smegmatis in Middlebrook 7H9 medium supplemented with 10% Middlebrook ADC enrichment and 2 ml/I glycerol). All other listed bacteria were grown in Müller-Hinton broth (0.2% beef infusion solids, 1.75% casein hydrolysate, 0.15% starch, pH 7.4). Cystobactamides and reference drugs were added directly to the cultures in sterile 96-well plates as duplicates and serial dilutions were prepared. Microorganisms were grown on a microplate shaker (750 rpm, 30-37° C., 18-48 h), except S. pneumonia, which was grown at non-shaking conditions (37° C., 5% CO2, 18 h). Growth inhibition was assessed by visual inspection and the MIC was defined as the lowest concentration of compound that inhibited visible growth.

[2] = system: E. coli DSM-26863 (tolC3); assay: MIC microdilution, E. coli DSM-26863 (tolC3); assay type: cell-based, Escherichia coli; details: Escherichia coli
Protocol: as §1, §2

E. coli JW0401-1 (WT) = assay: MIC microdilution, E. coli JW0401-1 (WT); assay type: cell-based, Escherichia coli; details: Escherichia coli; Gram-negative set
Protocol: as §1
as §2, with “Cystobactamides and reference drugs were added directly to the cultures in sterile 96-well plates as duplicates and serial dilutions were prepared. Microorganisms were grown on a microplate shaker (750 rpm, 30-37° C., 18-48 h), except S. pneumonia, which was grown at non-shaking conditions (37° C., 5% CO2, 18 h).” left out

E. coli Δtsx = assay: MIC microdilution, E. coli Δtsx; assay type: cell-based, Escherichia coli; details: Gram-negative set
Protocol: as §1
as §2, with “Cystobactamides and reference drugs were added directly to the cultures in sterile 96-well plates as duplicates and serial dilutions were prepared. Microorganisms were grown on a microplate shaker (750 rpm, 30-37° C., 18-48 h), except S. pneumonia, which was grown at non-shaking conditions (37° C., 5% CO2, 18 h).” left out

[3] = system: P. aeruginosa DSM-24600 (ESBL); assay: MIC microdilution, P. aeruginosa DSM-24600 (ESBL); assay type: cell-based, Pseudomonas aeruginosa; details: Pseudomonas aeruginosa, DSM24600
Protocol: as §1, §2

[4] = system: Escherichia coli MI [gyrA(S83L)]; assay: MIC microdilution, E. coli MI [gyrA(S83L)]; assay type: cell-based; details: read-out: MIC Escherichia coli MI [gyrA(S83L)]
Protocol: as §1
as §2, with “Cystobactamides and reference drugs were added directly to the cultures in sterile 96-well plates as duplicates and serial dilutions were prepared. Microorganisms were grown on a microplate shaker (750 rpm, 30-37° C., 18-48 h), except S. pneumonia, which was grown at non-shaking conditions (37° C., 5% CO2, 18 h).” left out

[5] = system: Escherichia coli WT-3.2 [gyrA(D87G)]; assay: MIC microdilution, E. coli WT-3.2 [gyrA(D87G)]; assay type: cell-based; details: read-out: MIC Escherichia coli WT-3.2 [gyrA(D87G)]
Protocol: as §1
as §2, with “Cystobactamides and reference drugs were added directly to the cultures in sterile 96-well plates as duplicates and serial dilutions were prepared. Microorganisms were grown on a microplate shaker (750 rpm, 30-37° C., 18-48 h), except S. pneumonia, which was grown at non-shaking conditions (37° C., 5% CO2, 18 h).” left out

[6] = system: Pseudomonas aeruginosa PA14; assay: MIC microdilution, P. aeruginosa PA14; assay type: cell-based; details: Pseudomonas aeruginosa
Protocol: as §1, §2

[7] = system: Micrococcus luteus DSM-1790; assay: MIC microdilution, Micrococcus luteus DSM-1790; assay type: cell-based
Protocol: as §1
as §2, with “Cystobactamides and reference drugs were added directly to the cultures in sterile 96-well plates as duplicates and serial dilutions were prepared. Microorganisms were grown on a microplate shaker (750 rpm, 30-37° C., 18-48 h), except S. pneumonia, which was grown at non-shaking conditions (37° C., 5% CO2, 18 h).” left out

[8] = system: Staphylococcus aureus ATCC29213; assay: MIC microdilution, Staphylococcus aureus ATCC29213; assay type: cell-based; details: ATCC29213, read-out: MIC Staphylococcus aureus ATCC29213
Protocol: as §1
as §2, with “Cystobactamides and reference drugs were added directly to the cultures in sterile 96-well plates as duplicates and serial dilutions were prepared. Microorganisms were grown on a microplate shaker (750 rpm, 30-37° C., 18-48 h), except S. pneumonia, which was grown at non-shaking conditions (37° C., 5% CO2, 18 h).” left out

[9] = system: Staphylococcus epidermidis DSM-28765; assay: MIC microdilution, Staphylococcus epidermidis DSM-28765; assay type: cell-based; details: Staphylococcus epidermidis
Protocol: as §1, §2

[10] = system: Streptococcus pneumoniae DSM-20566; assay: MIC microdilution, Streptococcus pneumoniae DSM-20566; assay type: cell-based
Protocol: as §1
as §2, with “Cystobactamides and reference drugs were added directly to the cultures in sterile 96-well plates as duplicates and serial dilutions were prepared. Microorganisms were grown on a microplate shaker (750 rpm, 30-37° C., 18-48 h), except S. pneumonia, which was grown at non-shaking conditions (37° C., 5% CO2, 18 h).” left out

Pichia anomala DSM-6766 = assay: MIC microdilution, Pichia anomala DSM-6766; assay type: cell-based; details: Hansenula anomala
Protocol: as §1
as §2, with “Cystobactamides and reference drugs were added directly to the cultures in sterile 96-well plates as duplicates and serial dilutions were prepared. Microorganisms were grown on a microplate shaker (750 rpm, 30-37° C., 18-48 h), except S. pneumonia, which was grown at non-shaking conditions (37° C., 5% CO2, 18 h).” left out

[11] = system: CHO-K1 (Chinese hamster ovary cell line); assay: Cytotoxicity (MTT), CHO-K1 cell line; assay type: cell-based; details: Cricetulus griseus, CHO-K1, 120 h, 5 d incubation
Protocol: CHO-K1 cells were obtained from the DSMZ and were cultured under conditions recommended by the depositor. Cells were seeded at 6×10^3 cells/well of 96-well plates in 180 μl complete medium and treated with compounds in serial dilution after 2 h of equilibration. Each sample was tested in duplicate as well as the internal DMSO control. After 5 d incubation, 20 μl of 5 mg/ml MTT (thiazolyl blue tetrazolium bromide) in PBS was added per well and it was further incubated for 2 h at 37° C. The medium was then discarded and cells were washed with 100 μl PBS before adding 100 μl 2-propanol/10 N HCl (250:1) in order to dissolve formazan granules. The absorbance at 570 nm was measured using a microplate reader (Tecan Infinite M200Pro), and cell viability was expressed as percentage relative to the respective […] control.

E. coli gyrase = biological target: T1, E. coli gyrase (Escherichia coli, UniProt P0AES4+P0AES6); assay: E. coli gyrase DNA supercoiling assay; assay type: biochemical; details: read-out: IC50 Ec gyrase (sc)
T1 construct: purchased Inspiralis, Norwich, UK
Protocol: To test the anti-gyrase activity of cystobactamides, commercial E. coli and P. aeruginosa gyrase supercoiling kits (Inspiralis, Norwich, UK) were used. For standard reactions 0.5 μg relaxed plasmid were mixed with 1 unit gyrase in 1× reaction buffer (see kit manual) and incubated for 30 min at 37° C. The reactions were quenched by the addition of DNA gel loading buffer containing 10% (w/v) SDS. The samples were separated on 1% (w/v) agarose gels and DNA was visualized using EtBr. All natural products stock solutions and dilutions were prepared in 100% DMSO and added to the supercoiling reactions giving a final DMSO concentration of 2% (v/v).

[12] = system: Escherichia coli (TolC-deficient); assay: MIC microdilution, E. coli (TolC-deficient); assay type: cell-based; details: Escherichia coli, read-out: MIC Escherichia coli (TolC-deficient)
Protocol: as §1
as §2, with “Cystobactamides and reference drugs were added directly to the cultures in sterile 96-well plates as duplicates and serial dilutions were prepared. Microorganisms were grown on a microplate shaker (750 rpm, 30-37° C., 18-48 h), except S. pneumonia, which was grown at non-shaking conditions (37° C., 5% CO2, 18 h).” left out

[13] = Gram-negative set, read-out: MIC A. baumannii DSM-30008
[14] = larger panel, read-out: MIC Acinetobacter baumannii DSM-30008
[15] = DSM26863, read-out: MIC E. coli DSM-26863 (tolC3)
[16] = DSM26863, read-out: MIC Escherichia coli DSM-26863 (tolC3)
[17] = Gram-negative set, read-out: MIC P. aeruginosa DSM-24600 (ESBL)
[18] = larger panel, read-out: MIC Pseudomonas aeruginosa DSM-24600 (ESBL)

Row | Compound | MIC [1, 13] | MIC [1, 14] | MIC [2, 15] | MIC [2, 16] | MIC [3, 17] | MIC [3, 18] | MIC [4] | MIC [5] | further results
1 | COC(C(N)=O)C(NC(=O)c1ccc(NC(=O)c2ccc([N+](=O)[O-])cc2)cc1)C(=O)Nc1ccc(C(=O)Nc2ccc(C(=O)Nc3ccc(C(=O)O)cc3OC(C)C)c(O)c2OC(C)C)cc1 (centres unmarked) [Cys 919-2] | 8 µg/mL (≈ 8.7 µM) | 8 µg/mL (≈ 8.7 µM) | 0.25 µg/mL (≈ 0.272 µM) | 0.5 to 1 µg/mL (≈ 0.544 to 1.09 µM) | 64 µg/mL (≈ 69.6 µM) | 64 µg/mL (≈ 69.6 µM) | 4 µg/mL (≈ 4.35 µM) | 4 µg/mL (≈ 4.35 µM) | MIC (E. coli JW0401-1 (WT)): 1 µg/mL (≈ 1.09 µM); MIC E. coli Δtsx (E. coli Δtsx): 1 µg/mL (≈ 1.09 µM); MIC ([6]; PA14, read-out: MIC Pseudomonas aeruginosa PA14): > 64 µg/mL; MIC ([7]; DSM1790, read-out: MIC Micrococcus luteus DSM-1790): 0.1 to 0.2 µg/mL (≈ 0.109 to 0.217 µM); MIC [8]: 0.1 µg/mL (≈ 0.109 µM); MIC ([9]; DSM28765, read-out: MIC Staphylococcus epidermidis DSM-28765): 0.25 µg/mL (≈ 0.272 µM); MIC ([10]; DSM20566, read-out: MIC Streptococcus pneumoniae DSM-20566): 0.1 µg/mL (≈ 0.109 µM); MIC (Pichia anomala DSM-6766; DSM6766, read-out: MIC Pichia anomala DSM-6766): > 64 µg/mL; IC50 [11]: ~50 µM; IC50 (E. coli gyrase): 0.67 µM
2 | O=C(O)c1cn(C2CC2)c2cc(N3CCNCC3)c(F)cc2c1=O [CP, Ciprofloxacin, reference compound] | 0.8 µg/mL (≈ 2.41 µM) | 0.2 to 0.4 µg/mL (≈ 0.604 to 1.21 µM) | ≤ 0.003 µg/mL | 0.003 µg/mL (≈ 0.00905 µM) | 3.2 µg/mL (≈ 9.66 µM) | 3.2 µg/mL (≈ 9.66 µM) | 0.4 to 0.8 µg/mL (≈ 1.21 to 2.41 µM) | 0.4 µg/mL (≈ 1.21 µM) | MIC [12]: 0.01 µg/mL (≈ 0.0302 µM); MIC ([6]; PA14, larger panel, read-out: MIC Pseudomonas aeruginosa PA14): 0.1 µg/mL (≈ 0.302 µM); MIC ([7]; DSM1790, larger panel, read-out: MIC Micrococcus luteus DSM-1790): 0.8 to 1.6 µg/mL (≈ 2.41 to 4.83 µM); MIC ([9]; DSM28765, larger panel, read-out: MIC Staphylococcus epidermidis DSM-28765): 0.2 µg/mL (≈ 0.604 µM); MIC ([10]; DSM20566, larger panel, read-out: MIC Streptococcus pneumoniae DSM-20566): 0.8 to 1.6 µg/mL (≈ 2.41 to 4.83 µM); MIC (Pichia anomala DSM-6766; DSM6766, larger panel, read-out: MIC Pichia anomala DSM-6766): > 6.4 µg/mL
